US11415579B2, “Assay for measuring a rate of reaction between a target and a ligand candidate” (Imperial College Innovations Ltd., priority 2016, dated 2022)

Experiments:
[1] = Kinetic thiol consumption assay with model thiol glutathione; format: physicochemical; parameters: Rate constant with glutathione (k(GSH)): unit not given here; conditions: for Rate constant with glutathione (k(GSH)): 500 μM ligand, 5 μM thiol, phosphate buffer pH 8; for Rate constant with Glutathione: Protein: Glutathione, cysteine position NA, in h-1
Method in brief: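 Rate constants for acrylamide reaction with 5 μM glutathione come from first-order exponential fits of normalized fluorescence decay (ex 380, em 470 nm). Reactions run in degassed phosphate buffer at pH 8 containing TCEP beads, room temperature.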

Cdk2(T182C) (C177A) = target: T1, Cdk2(T182C) (C177A) (Homo sapiens, UniProt P24941, C177A/T182C); assay: Kinetic thiol consumption assay with Cdk2 mutant T182C; format: binding; parameters: key to Rate enhancement, Cdk2 T182C: rate constant with Cdk2 ÷ rate constant with model thiol (fold); conditions: additional mutation C177A; for Rate constant with Cdk2 T182C: Protein: Cdk2, cysteine position T182C, in h^-1
T1 construct: poly-histidine; made in house; host or cells: E. coli
Method in brief: (§1)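 5 μM thiol, degassed phosphate pH 8, 2% v/v immobilized TCEP beads; 1 h RT; fluorescence ex 380/em 470 nm; normalized vs DMSO/thiol-only; first-order exponential decay fit → rate constant; Cdk2 k / model-thiol k = rate enhancement per acrylamide.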

Cdk2(C177A, F80C) = target: T2, Cdk2(C177A, F80C) (Homo sapiens, UniProt P24941, C177A/F80C); assay: Kinetic thiol consumption assay with Cdk2 mutant F80C, incl. kobs versus concentration (Kd, k2); format: binding; parameters: key to Rate enhancement, Cdk2 F80C: Cdk2 rate constant divided by model-thiol rate constant; conditions: additional mutation C177A; for Rate constant with Cdk2 F80C: Protein: Cdk2, cysteine position F80C, in h^-1
T2 construct: poly-histidine; made in house; host or cells: E. coli
Method in brief: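 His-tagged Cdk2(C177A/F80C) from E. coli or model thiol, 5 μM in degassed phosphate buffer pH 8 with TCEP beads, reacted with acrylamide ligands; fluorescence (ex/em 380/470 nm) normalized to DMSO control and fitted to first-order decay for kobs. Kd and k2 obtained from hyperbolic fit of kobs versus ligand concentration.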

[2] = target: T3, human cyclin-dependent kinase 2 (Cdk2) (Homo sapiens, UniProt P24941); assay: Kinetic thiol consumption assay with wild type Cdk2 (C177); format: binding; parameters: key to Rate enhancement, Cdk2 WT: k(Cdk2) divided by k(model thiol); Rate constant with Cdk2 (k(Cdk2)): unit not given here; conditions: for Rate constant with Cdk2 (k(Cdk2)): 500 μM ligand, 5 μM thiol, phosphate buffer pH 8; for Rate enhancement, Cdk2 WT: no additional mutations; for Rate constant with Cdk2 WT: Protein: Cdk2, cysteine position WT, in h^-1; for k(Cdk2)/k(Cdk2_mut) rate enhancement: model thiol Cdk2[C177A, F80C, K278C]; for k(Cdk2)/k(GSH) rate enhancement: model thiol glutathione
T3 construct: poly-histidine; made in house; host or cells: E. coli
Method in brief: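 Thiol 5 μM (Cdk2 or model thiol), degassed phosphate buffer pH 8, TCEP beads 2% v/v. Plates incubated 1 h RT, ex/em 380/470 nm. First-order decay fit → rate constant; ratio Cdk2/model thiol = rate enhancement.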

Cdk2[C177A, F80C, K278C] = target: T4, Cdk2[C177A, F80C, K278C] (Homo sapiens, UniProt P24941, C177A/F80C/K278C); assay: Kinetic thiol consumption assay with mutant Cdk2 as model thiol; format: binding; parameters: unit not given here; conditions: 500 μM ligand, 5 μM thiol, phosphate buffer pH 8
T4 construct: poly-histidine; made in house; host or cells: E. coli
Method in brief: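 Model thiol: His-tagged human Cdk2 C177A/F80C/K278C (two engineered surface cysteines), E. coli-expressed, 5 μM in degassed phosphate buffer pH 8 with immobilized TCEP beads (2% v/v). Fluorescence (ex/em 380/470 nm) followed over time at room temperature, normalized to DMSO/thiol control. First-order decay fit gives rate constants.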

Cdk2(S276C) (C177A) = target: T5, Cdk2(S276C) (C177A) (Homo sapiens, UniProt P24941, C177A/S276C); assay: Kinetic thiol consumption assay with Cdk2 mutant S276C; format: binding; parameters: key to Rate enhancement, Cdk2 S276C: rate constant with Cdk2 ÷ rate constant with model thiol (fold); conditions: additional mutation C177A; for Rate constant with Cdk2 S276C: Protein: Cdk2, cysteine position S276C, in h^-1
T5 construct: poly-histidine; made in house; host or cells: E. coli
Method in brief: as §1

Cdk2(R122C) (C177A) = target: T6, Cdk2(R122C) (C177A) (Homo sapiens, UniProt P24941, C177A/R122C); assay: Kinetic thiol consumption assay with Cdk2 mutant R122C; format: binding; parameters: key to Rate enhancement, Cdk2 R122C: rate constant with Cdk2 ÷ rate constant with model thiol (fold); conditions: additional mutation C177A; for Rate constant with Cdk2 R122C: Protein: Cdk2, cysteine position R122C, in h-1
T6 construct: poly-histidine; made in house; host or cells: E. coli
Method in brief: as §1

Cdk2(H71C) (C177A) = target: T7, Cdk2(H71C) (C177A) (Homo sapiens, UniProt P24941, C177A/H71C); assay: Kinetic thiol consumption assay with Cdk2 mutant H71C; format: binding; parameters: key to Rate enhancement, Cdk2 H71C: rate constant with Cdk2 ÷ rate constant with model thiol (fold); conditions: additional mutation C177A; for Rate constant with Cdk2 H71C: Protein: Cdk2, cysteine position H71C, in h^-1
T7 construct: poly-histidine; made in house; host or cells: E. coli
Method in brief: as §1

Cdk2(S181C) (C177A) = target: T8, Cdk2(S181C) (C177A) (Homo sapiens, UniProt P24941, C177A/S181C); assay: Kinetic thiol consumption assay with Cdk2 mutant S181C; format: binding; parameters: key to Rate enhancement, Cdk2 S181C: rate constant with Cdk2 ÷ rate constant with model thiol (fold); conditions: additional mutation C177A; for Rate constant with Cdk2 S181C: Protein: Cdk2, cysteine position S181C, in h^-1
T8 construct: poly-histidine; made in house; host or cells: E. coli
Method in brief: as §1

Cdk2(N272C) (C177A) = target: T9, Cdk2(N272C) (C177A) (Homo sapiens, UniProt P24941, C177A/N272C); assay: Kinetic thiol consumption assay with Cdk2 mutant N272C; format: binding; parameters: key to Rate enhancement, Cdk2 N272: rate constant with Cdk2 ÷ rate constant with model thiol (fold); conditions: for Rate enhancement, Cdk2 N272: Cdk2 N272, additional mutation C177A; for Rate constant with Cdk2 N272C: Protein: Cdk2, cysteine position N272C, additional mutation C177A, in h^-1
T9 construct: poly-histidine; made in house; host or cells: E. coli
Method in brief: as §1

Rate enhancement, Cdk2 T182C (Cdk2(T182C) (C177A)) | Rate constant with Cdk2 T182C (Cdk2(T182C) (C177A)) | Rate enhancement, Cdk2 F80C (Cdk2(C177A, F80C)) | Rate constant with Cdk2 F80C (Cdk2(C177A, F80C)) | Rate constant with Cdk2 (k(Cdk2)) [2] | Rate enhancement, Cdk2 WT [2] | Rate constant with Cdk2 WT [2] | k(Cdk2)/k(Cdk2_mut) rate enhancement [2] | k(Cdk2)/k(GSH) rate enhancement [2] | Rate constant with Cdk2[C177A, F80C, K278C] (k(Cdk2_mut)) (Cdk2[C177A, F80C, K278C]) | Rate enhancement, Cdk2 S276C (Cdk2(S276C) (C177A)) | Rate constant with Cdk2 S276C (Cdk2(S276C) (C177A)) | Rate enhancement, Cdk2 R122C (Cdk2(R122C) (C177A)) | Rate enhancement, Cdk2 H71C (Cdk2(H71C) (C177A)) | Rate enhancement, Cdk2 S181C (Cdk2(S181C) (C177A)) | Rate constant with Cdk2 S181C (Cdk2(S181C) (C177A)) | Rate enhancement, Cdk2 N272 (Cdk2(N272C) (C177A)) | Rate constant with Cdk2 N272C (Cdk2(N272C) (C177A)) | SMILES | Rate constant with glutathione (k(GSH)) [1] | Rate constant with Glutathione [1] | also measured
1.063 | 0.01308 | 0.1307 | 0.001607 | 0.0056 | 0.4553 | 0.0056 | 1.617 | 0.7407 | 0.00346 | 0.5464 | 0.006721 | 0.2628 | 0 | 0.2766 | 0.003402 | 0.1665 | 0.002048 | C=CC(=O)NC1(C2CC2)CC1 [CA-047] | 0.00756 | 0.0123 | Rate constant with Cdk2 R122C (Cdk2(R122C) (C177A)): 0.003233
1.042 | 0.009576 | 0.4074 | 0.003744 | 0.00116 | 0.1258 | 0.001156 | 0.2924 | 0.2286 | 0.00395 | 0.0707 | 0.0006497 | 0.2009 | 0.1903 | 0.2301 | 0.002114 | 0.09859 | 0.0009059 | C=CC(=O)N1CCCC(N2C(=O)CC3(CCCC3)C2=O)C1 (stereo not shown) [CA-236] | 0.00506 | 0.009189 | Rate constant with Cdk2 R122C (Cdk2(R122C) (C177A)): 0.001846; Rate constant with Cdk2 H71C (Cdk2(H71C) (C177A)): 0.001749
1.829 | 0.01875 | 0.4555 | 0.004669 | 0.003 | 0.5934 | 0.006082 | 0.8773 | 0.3421 | 0.00342 | 0.4274 | 0.004381 | 0.322 | 0.248 | 0.214 | 0.002194 | 0.6473 | 0.006635 | C=CC(=O)NC1C[C@@H](C(=C)C)CC=C1C (stereo partly shown) [EL-1074] | 0.00876 | 0.01025 | Rate constant with Cdk2 R122C (Cdk2(R122C) (C177A)): 0.0033; Rate constant with Cdk2 H71C (Cdk2(H71C) (C177A)): 0.002542
0.5328 | 0.001525 | 0 | – | 0.00166 | 0.579 | 0.001657 | 1.317 | 0.813 | 0.00126 | 0 | – | 0 | 0 | 0.5143 | 0.001472 | 0.1784 | 0.0005105 | C=CC(=O)NCc1ccc(-c2ccccc2)cc1 [EL-1050] | 0.00204 | 0.002862 | –
5.246 | 0.3207 | 1.175 | 0.07185 | 0.1733 | 2.835 | 0.1733 | 0.5523 | 2.895 | 0.3138 | 1.04 | 0.06356 | 0.3475 | 1.035 | 0.5066 | 0.03097 | 0.7612 | 0.04653 | C=CC(=O)Nc1ccc(C(=O)OC)cc1 [CA-028] | 0.05986 | 0.06113 | Rate constant with Cdk2 R122C (Cdk2(R122C) (C177A)): 0.02124; Rate constant with Cdk2 H71C (Cdk2(H71C) (C177A)): 0.06327
0.921 | 0.01562 | 0.1388 | 0.002354 | 0.00578 | 0.3633 | 0.006162 | 5.219 | 0.5947 | 0.00111 | 0.1692 | 0.00287 | 0.3602 | 0 | 0.2075 | 0.003519 | 0.3358 | 0.005695 | C=CC(=O)N1CC2CN(Cc3ccccc3)CC2C1 (stereo not shown) [CA-207] | 0.00972 | 0.01696 | Rate constant with Cdk2 R122C (Cdk2(R122C) (C177A)): 0.006109
2.927 | 0.03904 | 0.3123 | 0.004166 | 0.00974 | 0.7298 | 0.009736 | 5.551 | 0.7249 | 0.00175 | 0.6022 | 0.008034 | 0.3022 | 0.8583 | 1.741 | 0.02323 | 0.6555 | 0.008745 | C=CC(=O)N1CCCN2C(=O)CCC12c1ccc(OC)cc1 (stereo not shown) [EL-1168] | 0.01343 | 0.01334 | Rate constant with Cdk2 R122C (Cdk2(R122C) (C177A)): 0.004032; Rate constant with Cdk2 H71C (Cdk2(H71C) (C177A)): 0.01145
